Results as given in patent publication US11634381B2, “RUNX2 transcription factor inhibitors and uses thereof” (University of Maryland, Baltimore, priority 2015, dated 2023).

What was measured:
[1] = system: MCF7-tet-off or MDA-231 cells; test: Calcein-AM viability assay; assay type: cell-based, human; conditions: over 24 hrs
Method: In FIGS. 9A-9C compound 1 was added at the initial day of cell plating. Tumorspheres of MCF7-tet-off (−Doxy) cells were photographed for 18 days at ×40 and ×100 magnifications (FIG. 9A), and counted at the final day at ×40 magnification (FIG. 9C). Tumorspheres of MDA-231, MDA-468 and MCF7 cells at day 7 are shown (FIG. 9B). Spheres of MDA-231 and MCF7 cells were counted at day 18 with ×20 magnification. Spheres of vehicle-treated MDA-468 cells were counted at day 7 with ×20 magnification as they became fragile and disrupted 7 days after incubation. In FIG. 9C sphere number (No.) was counted from 9 fields per well. Data presented as mean±SD. Experiments were done in triplicate and repeated three times. *, P<0.05 compared to +Doxy; ^#, P<0.05 compared to −Doxy with vehicle treatment. Box, RUNX2 induction upon Doxy removal from MCF7-tet-off cells (−D). In FIG. 9D to ensure robust sphere formation, compound 1 was added 4 days after cell plating (D4+), and cells were further incubated for 5 days (D5) or for 7 days (D7). In FIG. 9E the cellular invasive ability of MCF7-tet-off cells (left) was evaluated by the 96 Well BME Cell Invasion Assay and xCELLigence systems in vitro, respectively. In parallel, similar amount of cells were plated in separate plates and treated with compound 1 for 24 hrs, and Calcein-AM assay was performed (right). […]

RUNX2 [2] = test: Western blot of RUNX2, RUNX1, CBF-β; assay type: cell-based, human; conditions: for CBF-β levels: MDA-231, MDA-468 and MCF7 cells
Method: (§1) Whole cell lysates extracted in RIPA buffer (Upstate) were separated on 4-12% gradient SDS-PAGE and transferred to nitrocellulose membrane. The blots were incubated with specific antibodies for each protein overnight at 4° C. After antibody washing, the blots were reacted with their respective secondary antibody and detected with enhanced chemiluminescence reagents (Millipore) according to the supplier's protocol. Antibodies for proteins were purchased as below. RUNX1, RUNX2, CBF-β, ubiquitin and caspase-3 (Cell Signaling Technologies), S451-p-RUNX2 (Bioss Gentaur, Belgium), RUNX3 and Glut-1 (Millipore, Calif.), β-actin and RUNX2 antibody for IHC (Sigma-Aldrich), and Ki-67 for IHC (Bethyl Laboratories, Inc, TX).

RUNX2 [3] = target: RUNX2 (Homo sapiens, UniProt Q13950); test: Western blot of RUNX2, RUNX1, CBF-β; assay type: cell-based; set-up: endogenous in cells; host or cells: MDA-231, MDA-468
Chain of RUNX2 (Homo sapiens, UniProt Q13950) (Q13950 whole entry): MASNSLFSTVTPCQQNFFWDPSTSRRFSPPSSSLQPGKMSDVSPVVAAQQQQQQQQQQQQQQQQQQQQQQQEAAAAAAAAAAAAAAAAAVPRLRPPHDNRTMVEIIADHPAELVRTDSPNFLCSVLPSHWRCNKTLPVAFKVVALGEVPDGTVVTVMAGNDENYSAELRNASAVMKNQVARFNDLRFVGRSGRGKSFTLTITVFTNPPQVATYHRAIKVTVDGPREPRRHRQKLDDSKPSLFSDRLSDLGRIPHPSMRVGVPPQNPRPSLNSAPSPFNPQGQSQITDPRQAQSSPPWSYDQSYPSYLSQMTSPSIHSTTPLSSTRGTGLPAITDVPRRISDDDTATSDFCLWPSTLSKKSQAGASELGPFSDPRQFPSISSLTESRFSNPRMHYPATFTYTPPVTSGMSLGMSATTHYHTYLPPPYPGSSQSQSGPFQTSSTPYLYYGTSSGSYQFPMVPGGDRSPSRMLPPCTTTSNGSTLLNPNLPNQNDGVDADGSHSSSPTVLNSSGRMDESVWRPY
Method: as §1

[4] = system: MCF7-tet-off (-Doxy), MDA-231, MDA-468 and MCF7 cells; test: Tumorsphere assay; assay type: cell-based, human; conditions: 50 μM
Method: Single cell suspensions (100,000 cells/well) wereplatedin 6-well ultra-low attachment plates (Corning) with 5 ml of EGM-2 supplemented with bullet kit (Lonza) and 2% FBS. compound 1 (50 μM) was added at the day of the plating or 4 days after plating. Tumorspheres were continuously photographed for 18 days and counted at the final day. Spheres were counted at 9 fields per well and averaged from triplicate.

BC cells = test: Glucose consumption and lactate production; assay type: cell-based, human
Method: For measurement of glucose level, cells (100,000/well) were plated in 24-well plates and incubated overnight. Cells were treated with compound 1 (50 μM) in phenol red-free growth medium and further incubated for 6 hrs or 24 hrs. The culture medium was collected and filtered through a 0.22 μm pore membrane. Glucose level in the medium was measured using Amplex Red Glucose/Glucose Oxidase Assay Kit (Invitrogen) as per manufacturer's instructions. For lactate level, cells were treated with compound 1 for 24 hrs, and the medium was washed and replaced with HEPES-buffered Krebs-Ringer solution (Boston BioProducts) supplemented with 10 mM Glucose. Cells were incubated for 30 min, and the medium was collected and filtered through a 0.22 μm pore membrane. Lactate level in the medium was measured using Lactate Assay Kit (Sigma-Aldrich) as per manufacturer's instructions. Cell growth assays using crystal violet staining were performed to verify equal number of cells and no significant difference was found in 24 hrs of compound 1 treatment (data not shown).

[5] = system: non-malignant cells (MCF10A, IEC-6, GES-1, C2C12); test: Cell growth assay in non-malignant cells; assay type: cell-based, human, rat, murine; conditions: 0˜100 μM, 24˜72 hrs
Method: Cells wereplated on 96-well (30,000 cells/well) or 24-well plates (50,000 cells/well). After CADD522 (0˜100 μM) addition, cells were incubated for 24˜72 hrs. Cells were stained with crystal violet (0.5% in Methanol:Acetic Acid=3:1) and washed with PBS. Crystal violet was solubilized in DMSO and measured in a microplate reader at 592 nm.

[6] = Maximum tolerated dose (MTD) test; assay type: in vivo; conditions: up to 20 mg/kg, 2 weeks, athymic nude mice
Source text: Animal maintenance and experimental protocols are in accordance with the guidelines of the University of Maryland's Institutional Animal Care and Use Committee.

[7] = system: MDA-231, MDA-468, MCF7 and BT474 breast cancer cells; test: ROS production luminometer assay; assay type: cell-based, human; conditions: 0-100 μM, 6-18 hours
Method: In FIG. 27A MDA-231, MDA-468, MCF7 and BT474 breast cancer cells were treated with compound 1 (0-100 μM) for 6-18 hours and ROS production in response to H2O2 treatment (2 mM) was measured with luciferase-based luminometer assay. In FIG. 27B T47D-Vector control or T47D-RUNX2-clone #10 overexpressing cells; MCF7-Vector Control or RUNX2-clone #2 overexpressing cells were treated with 50 μM compound 1 for 6 hours.

Br-001 tumor = test: TNBC-PDX Br-001 model; assay type: in vivo, nude mice; conditions: 10 mg/kg
Method: For the PDX models, Br-001 tumor fragments derived from a patient with TNBC (University of Maryland, Translational Core Facility) were inoculated subcutaneously in female NOD scid gamma (NSG) mice (P1). After P1 tumors were grown, tumors were excised, fragmented and inoculated to a new group of NSG mice (P2). After P2 tumors were grown, they were excised, fragmented, and inoculated into nude mice (P3). When the size of the tumors reached 200˜250 mm^3, mice were randomized into two groups, and received i.p. injection of vehicle or compound 1 (10 mg/kg) twice a week for 11 days.

O=C(O)C1C2C=CC(C2)C1C(=O)Nc1ccc(Cl)c(Cl)c1 (centres unmarked) [compound 1, 3-(N-(3,4-dichlorophenyl)carbamoyl)-5-norbornene-2-carboxylic acid]
viability [1]: little effect
CBF-β levels (RUNX2 [2]; 6 hrs): increased
CBF-β levels (RUNX2 [2]; after 24 hrs): decreased
mRNA and protein expression of RUNX2 (RUNX2 [2]; T47D-RUNX2 and MCF7-RUNX2 cells, 50 μM, 72 hrs): further enhanced
CBF-β level (RUNX2 [2]; ectopic RUNX2 T47D and MCF7 cells, 50 μM, 72 hrs): reduced
stability of RUNX1 or of CBF-β (RUNX2 [2]; in the presence of CHX): not increased
RUNX1 protein levels (RUNX2 [2]; most BC cells): not altered
nuclear translocation of RUNX2 protein (RUNX2 [3]): did not block or attenuate
S451-p-RUNX2 levels (RUNX2 [3]; Empty controls, MDA-468 and MCF7): clearly reduced
RUNX2 protein stability (RUNX2 [3]; MDA-468 and MDA-231 cells, cycloheximide, 50 μM): increased RUNX2 stability
size and number of tumorspheres [4]: dramatically decreased
lactate concentration (BC cells; 50 μM): significantly reduced
glucose consumption (BC cells; MDA-231 cells): Slight but insignificant inhibition
glucose level in the medium (BC cells; RUNX2-expressing MCF7 and T47D, MCF7 and MDA-468 cells, 6 hrs and 24 hrs): increased
sensitivity of non-malignant cells versus BC cell lines [5]: much lower
influence on body weight or general health [6]: no detectable influence
mitochondrial ROS production [7]: increase in mitochondrial ROS production
Ki-67 expression (Br-001 tumor; i.p.): markedly reduced
tumor volume (Br-001 tumor; i.p., 11 days): significant decrease
body weight and general health (Br-001 tumor; nude mice): did not significantly decrease body weight
